Holding throughout (assay type): cell-based
Test [1] relates to HeLa cells. Kind of test: Confocal microscopic analysis of intracellular translocation of synthetic peptides in HeLa cells. The following applies: confocal microscopic analysis. Here is the method:
(§1) Three kinds of cells were used for incorporating the peptides: CHO cells (ATCC NO. CCL-61), HeLa cells, and Jurkat cells. 10^4 CHO cells and HeLa cells and 10^5 Jurkat cells were separately inoculated to a 96-well plate, and cultured for 2 or 3 days. Subsequently, when the cells became confluent, each peptide solution was added to each type of cell, and the cells were incubated for 1 hour. After each type of cell was washed with PBS three times, 100 μL of 0.25% trypsin-1 mM EDTA solution was added, and trypsinization was performed at room temperature for 5 minutes. After 400 μL of PBS (10% FCS) was added to neutralize the trypsin, the cells were washed with 1 mL of HBSS (Hanks' Balanced Salt Solution/produced by Invitrogen) three times. After the washing, the cells were suspended in 50 μL of HBSS and analyzed using a confocal microscope. Measurements and analysis were performed using a confocal differential interference laser microscope system (Bio-Rad, Radience2100/Green He-Ne, 488 nm, microscope: Nikon, ECLIPSE E600).
In HeLa cells as with CHO cells, intracellular translocation experiments of synthetic peptides of modified PTD sequences were performed by confocal microscopic analysis.

In test [2] the test system is Jurkat cells. Kind of test: Confocal microscopic analysis of intracellular translocation of synthetic peptides in Jurkat cells. Here is the method: as §1
In Jurkat cells as well, intracellular translocation experiments of synthetic peptides of modified PTD sequences were performed by confocal microscopic analysis.

Test [3] relates to CHO cells. Kind of test: Test of translocation of fluorescence-labeled peptides into CHO cells (FACS and confocal microscopic analysis).
The subject of test [4] is CHO cells. The description is as above. The following applies: FACS; 6.25 μM.

On to “KSH1-1: KSH1 with the lysine of the lysine/arginine cluster substituted with arginine (RLWMRWYSPTTRRYG; Designed peptide to act as PTD(Protein Transduction Domain))”, for which the “intracellular translocation in HeLa cells (modified peptides with better translocation)” value in test [1] is given as “better intracellular translocation”. For the same substance, in test [2], the “intracellular translocation in Jurkat cells as compared to that of SEQ ID NO:37” value is “better intracellular translocation”. The “intracellular translocation compared with KSH1 (in words)” value in test [3] (50 μM, 25 μM, 12.5 μM and 6.5 μM) is reported as “clearly accentuated intracellular translocation”. The “intracellular translocation compared with KSH1” value in test [3] (FACS, 12.5 μM) was “about 8 times”; in test [3] (FACS, 25 μM), “about 2 times”; in test [4], “about 2 times”. Further, the “decrease of translocation efficiency compared with KSH1” value in test [3] (FACS, 50 μM) was “about 20%”.

Source of the values: patent publication US8691528B2, “Cell penetrating peptide” (Mitsubishi Tanabe Pharma Corporation, priority 2005, dated 2014).
